Test results taken from patent publication US12102615B2 (THE TEXAS A&M UNIVERSITY SYSTEM, priority 2018, dated 2024).
Values joined by “and” are separate entries in the source; they are usually repeats but may differ in a detail not shown here. Identical values can stand only once. Like-named read-outs stand apart in the source and are kept apart here.

Key:
[1] = system: Candida glabrata ATCC 2001; assay: Minimum inhibitory concentration (MIC) assay, modified CLSI M27-A3; assay type: cell-based; settings: 24 hours, 35° C.
Protocol: (§1) MIC assays were performed in duplicate as previously described following a modified version of the CLSI M27-A3 methods.
(§2) Minimum inhibitory concentration (MIC) susceptibility testing was performed following a modified version, as previously reported, of the CLSI M27-A3 methods for the susceptibility testing of yeasts. Incubation temperature was 35° C. and the inoculum size was 0.5-2.5×10^3 colony-forming units (CFU)/mL for yeasts. MICs were performed to determine the bioactivity of each new OF-Δxyl analogue (Table 3).

[2] = system: Candida albicans ATCC 3147; assay type: cell-based; settings: 24 hours, 35° C., listed as dihydrosphingosine
Protocol: as §1, §2

[3] = system: S. cerevisiae DGY6 haploid BY4741; assay type: cell-based; settings: Saccharomyces cerevisiae DGY6 haploid BY4741; 24 hours, 35° C.
Protocol: as §1, §2

actin = biological target: T1, actin (Oryctolagus cuniculus, UniProt P68135); assay: Pyrene labeled actin polymerization assay; assay type: biochemical; settings: 5 μM; approximately one hour after incubation in the polymerization buffer
T1 construct: purchased Cytoskeleton, Inc. (Denver, CO) BK003
Protocol: (§3) Actin polymerization and depolymerization assays were performed using the Actin polymerization biochem kit (#BK003; Cytoskeleton, Inc. Denver, CO) following the manufacturer's instructions with some modifications. Briefly, for the polymerization assay, G-actin stock solution was made at 0.2 mg/mL instead of 0.4 mg/mL. For the depolymerization assay, F-actin stock solution was diluted 9-fold instead of 5-fold. […] The experiments were done in duplicate.

F-actin [4] = biological target: T2, F-actin (Oryctolagus cuniculus, UniProt P68135); assay: Pyrene labeled actin depolymerization assay; assay type: biochemical; parameters: purchased Cytoskeleton, Inc. (Denver, CO) BK003; settings: 5 μM; for pyrene fluorescent reading following incubation in depolymerization buffer: no drug control at 2,500 AU
Protocol: as §3

F-actin [5] = biological target: T2, F-actin; assay: Actin co-sedimentation assay; assay type: binding, rabbit; parameters: Purified rabbit skeletal muscle filamentous actin (AKF99); purchased Cytoskeleton Inc. (Denver, CO) AKF99; host or cells: rabbit skeletal muscle
F-actin [6] = biological target: T2, F-actin; parameters: Purified rabbit skeletal muscle filamentous actin (AKF99); purchased Cytoskeleton Inc. (Denver, CO) AKF99; host or cells: rabbit skeletal muscle; settings: co-sedimentation assay, published previously (Ravichandran et al.), read-out: Kd, binding to actin; cited from earlier work

Row | Compound | MIC [1] | MIC [2] | MIC [3] | pyrene fluorescence reading, plateau in polymerization buffer (actin) | effect on polymerization or depolymerization of actin (F-actin [4]) | pyrene fluorescent reading following incubation in depolymerization buffer (F-actin [4]) | Kd (F-actin [5]) | fold lower saturation of binding ratio than native occidiofungin (F-actin [5]; versus native occidiofungin) | Kd (F-actin [6])
1 | CCCCCCCCCCCCCCCC(O)C(CO)NCC[C@@H]1CC(=O)N[C@H](CO)C(=O)N[C@H]([C@H](O)c2ccc(O)cc2)C(=O)N[C@H](CCN)C(=O)NCC(=O)N[C@@H](CC(N)=O)C(=O)N[C@@H](CO)C(=O)N[C@@H]([C@H](O)C(N)=O)C(=O)N1 (mixture of isomers) | 8 µg/mL | 16 µg/mL | 2 µg/mL | ~21,000 AU | did not interfere with polymerization or depolymerization of actin | 2,500 AU | 25 nM | 13.5 fold | 
2 | phalloidin |  |  |  | around 19,000 AU | completely blocked the depolymerization of F-actin | above 5,000 AU |  |  | ~8 nM and 8 nM
